Measurements published in patent US20240390340A1 (INCYTE CORPORATION, priority 2023, published 2024).
pIC50: −log10 of the molar value. Like-named read-outs stand apart in the source and are kept apart here.

Key:
[1] = system: KRAS; test: KRAS inhibition, assay not specified (at least one assay described herein); settings: Peak 1 versus Peak 2 of prep. LCMS; assay not stated
[2] = target: KRAS G12V (Homo sapiens, UniProt P01116, G12V); test: GDP-GTP exchange assay (bodipy-GDP/GppNHp, SOS1), KRAS G12V; type: biochemical
[3] = target: KRAS G12D (Homo sapiens, UniProt P01116, G12D); test: GDP-GTP exchange assay (bodipy-GDP/GppNHp, SOS1), KRAS G12D; type: biochemical
[4] = system: Caco-2 cells; test: Caco2 assay (Papp A-B); type: in vitro ADME; settings: test compound 50 μM, 120 min, 37° C.
Procedure, shortened: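 Caco-2 monolayers grown 22–25 days on Transwells (TEER 300 Ω·cm^2) were dosed apically with 50 μM compound in HBSS; basolateral receiver held HBSS with 4% BSA. Incubation 120 min at 37° C, 5% CO2; donor and receiver samples quantified by LCMS and Papp A-B calculated from receiver-side cumulative flux slope.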

[5] = Table H, column G12V, for compounds isolated as several atropisomers/diastereoisomers the value for the most potent isomer is quoted, read-out: KRAS G12V exchange assay IC50
[6] = Table H, column G12D, for compounds isolated as several atropisomers/diastereoisomers the value for the most potent isomer is quoted, read-out: KRAS G12D exchange assay IC50
[7] = KRAS G12V mutant, value for the most potent isomer quoted for certain compounds, read-out: G12V (KRAS G12V exchange assay IC50)
[8] = bodipy-loaded KRAS G12D 2.5 nM, 4 h pre-incubation, value for the most potent isomer quoted for certain compounds, read-out: G12D (KRAS G12D exchange assay IC50)

Chain of KRAS G12D (P01116 1-188 isoform P01116-2 G12D): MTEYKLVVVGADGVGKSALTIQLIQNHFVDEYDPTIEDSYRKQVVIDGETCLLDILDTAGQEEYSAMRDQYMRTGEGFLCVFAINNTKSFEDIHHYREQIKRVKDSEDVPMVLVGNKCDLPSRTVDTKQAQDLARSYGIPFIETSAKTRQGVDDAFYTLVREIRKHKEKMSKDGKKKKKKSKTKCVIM
Chain of KRAS G12V (P01116 1-188 isoform P01116-2 G12V): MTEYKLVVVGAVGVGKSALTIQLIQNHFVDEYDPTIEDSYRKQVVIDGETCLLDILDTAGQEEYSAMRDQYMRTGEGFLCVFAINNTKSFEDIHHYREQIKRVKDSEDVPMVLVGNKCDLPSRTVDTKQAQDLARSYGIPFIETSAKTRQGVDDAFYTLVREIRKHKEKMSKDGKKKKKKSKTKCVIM

COC[C@@H]1[C@@H](Oc2cc(OC)ncc2F)C[C@H](c2cc3c([C@@H](C)O)nc4c(F)c(-c5cccc(Cl)c5Cl)c(CCC#N)cc4c3n2[C@H]2[C@H]3CN[C@@H]2C3)N1C(=O)C1CC1 (single isomer, unassigned)
potency of the separated diastereoisomer (atropisomer) in words [1]: potent

C[C@@H](O)c1nc2c(F)c(-c3cccc(Cl)c3Cl)c(CCC#N)cc2c2c1cc([C@H]1[C@H](O)[C@H](Oc3ccccn3)CN1C(=O)C1CC1)n2[C@H]1[C@H]2CN[C@@H]1C2 (single isomer, unassigned)
potency of the separated diastereoisomer (atropisomer) in words [1]: potent

COc1ccc(O[C@H]2C[C@H](c3cc4c([C@@H](C)O)nc5c(F)c(-c6cccc(Cl)c6Cl)c(CCC#N)cc5c4n3[C@H]3[C@H]4CN[C@@H]3C4)N(C(=O)C3CC3)C2)cn1 [Example 76, 3-(1-((1R,4R,5S)-2-Azabicyclo[2.1.1]hexan-5-yl)-2-((2R,4S)-1-(cyclopropanecarbonyl)-4-((6-methoxypyridin-3-yl)oxy)pyrrolidin-2-yl)-7-(2,3-dichlorophenyl)-6-fluoro-4-((R)-1-hydroxyethyl)-1H-pyrrolo[3,2-c]quinolin-8-yl)propanenitrile]
pIC50 [2, 5]: ≥ 7.00
pIC50 [3, 6]: ≥ 7.00
Caco-2 [4]: ++ (a Caco-2 value of >0.5 but ≤1)

C[C@@H](O)c1nc2c(F)c(-c3cccc(Cl)c3Cl)c(CCC#N)cc2c2c1cc([C@H]1C[C@H](Oc3cc(C4CC4)on3)CN1C(=O)C1CC1)n2[C@H]1[C@H]2CN[C@@H]1C2 [Example 77, 3-(1-((1R,4R,5S)-2-Azabicyclo[2.1.1]hexan-5-yl)-2-((2R,4S)-1-(cyclopropanecarbonyl)-4-((5-cyclopropylisoxazol-3-yl)oxy)pyrrolidin-2-yl)-7-(2,3-dichlorophenyl)-6-fluoro-4-((R)-1-hydroxyethyl)-1H-pyrrolo[3,2-c]quinolin-8-yl)propanenitrile]
pIC50 [2, 5]: ≥ 7.00
pIC50 [3, 6]: ≥ 7.00
Caco-2 [4]: + (a Caco-2 value of ≤0.5)

Cc1nc2c(F)c(-c3cccc(Cl)c3Cl)c(CCC#N)cc2c2c1cc([C@H]1C[C@H](OC3(C)CCC3)CN1C(=O)C1CC1)n2[C@H]1[C@H]2CN[C@@H]1C2 [Example 78, 3-(1-((1R,4R,5S)-2-Azabicyclo[2.1.1]hexan-5-yl)-2-((2R,4S)-1-(cyclopropanecarbonyl)-4-(1-methylcyclobutoxy)pyrrolidin-2-yl)-7-(2,3-dichlorophenyl)-6-fluoro-4-methyl-1H-pyrrolo[3,2-c]quinolin-8-yl)propanenitrile]
pIC50 [2, 5]: ≥ 7.00
pIC50 [3, 6]: ≥ 7.00
Caco-2 [4]: +++ (a Caco-2 value of >1)

Cc1nc2c(F)c(-c3cccc(Cl)c3Cl)c(CCC#N)cc2c2c1cc([C@H]1C[C@](C)(OCc3ccccc3)CN1C(=O)C1CC1)n2[C@H]1[C@H]2CN[C@@H]1C2 [Example 81, 3-(2-((2R,4S)-4-(Benzyloxy)-1-(cyclopropanecarbonyl)-4-methylpyrrolidin-2-yl)-1-((1R,4R,5S)-2-azabicyclo[2.1.1]hexan-5-yl)-7-(2,3-dichlorophenyl)-6-fluoro-4-methyl-1H-pyrrolo[3,2-c]quinolin-8-yl)propanenitrile]
pIC50 [2, 7]: ≥ 7.00
pIC50 [3, 8]: ≥ 7.00
Caco-2 [4]: +++ (a Caco-2 value of >1)

CC[C@@H]1[C@@H](Oc2cc(OC)ncc2F)C[C@H](c2cc3c([C@@H](C)O)nc4c(F)c(-c5cccc(Cl)c5Cl)c(CCC#N)cc4c3n2[C@H]2[C@H]3CN[C@@H]2C3)N1C(=O)C1CC1 [Example 82, 3-(1-((1R,4R,5S)-2-Azabicyclo[2.1.1]hexan-5-yl)-2-((2R,4S,5R)-1-(cyclopropanecarbonyl)-5-ethyl-4-((5-fluoro-2-methoxypyridin-4-yl)oxy)pyrrolidin-2-yl)-7-(2,3-dichlorophenyl)-6-fluoro-4-((R)-1-hydroxyethyl)-1H-pyrrolo[3,2-c]quinolin-8-yl)propanenitrile]
pIC50 [2, 7]: ≥ 7.00
pIC50 [3, 8]: ≥ 7.00
Caco-2 [4]: +++ (a Caco-2 value of >1)

COC[C@@H]1[C@@H](Oc2cc(OC)ncc2F)C[C@H](c2cc3c([C@@H](C)O)nc4c(F)c(-c5cccc(Cl)c5Cl)c(CCC#N)cc4c3n2[C@H]2[C@H]3CN[C@@H]2C3)N1C(=O)C1CC1 [Example 83]
pIC50 [2, 7]: ≥ 7.00
pIC50 [3, 8]: ≥ 7.00
Caco-2 [4]: ++ (a Caco-2 value of >0.5 but ≤1)
